Key:
[1] = tested on: Sprague-Dawley rats; assay: Peripheral IGFBP-3 infusion during hyperinsulinemic clamp; format: in vivo, rat
Experimental: To study the acute effects of an infusion of IGFBP-3, two groups of awake, unstressed, chronically catheterized Sprague-Dawley rats (˜300 g) were studied for 300 min (n=6 in each group) under hyperinsulinemic clamp (as previously described). From 120 min the rats received a primed continuous infusion of IGFBP-3 (0.06 mg/kg/hr) or saline (control) for an additional 3 h.
Plasma samples for determination of [^3H]glucose and [^3H] water specific activities were obtained at 10-min intervals during the basal and clamp periods. Steady state conditions for the plasma glucose concentration and specific activity were achieved within 90 min in all the studies. Plasma samples for determination of plasma IGF-1 (rat and human), IGFBP-3 (human IGFBP-3), GH, insulin, leptin, and FFA concentrations were collected at 30-min intervals throughout the study. All determinations were also performed on portal vein blood obtained at the end of the experiments. The total amount of blood drawn during the entire study for various assays is ˜3 cc. After separation of plasma (subsequently used for analysis), the red blood cells were reconstituted in saline and infused back into the animal.
Plasma glucose (sample volume 10 μl) was measured by the glucose oxidase method (Glucose Analyzer II, Beckman Instruments, Palo Alto, Calif.). Plasma [^3H]glucose radioactivity was measured in duplicates in the supernatants of Ba(OH)2 and ZnSO4 precipitates of plasma samples (20 μl) after evaporation to dryness to eliminate tritiated water. […] Plasma insulin (10 μl) was measured by RIA using rat insulin standard for basal studies and human insulin standard for insulin clamp studies. […] Plasma non-esterified fatty acid concentrations (5 μl) were determined by an enzymatic method with an automated kit according to the manufacturer's specification (Waco Pure Chemical Industries, Osaka, Japan). Rat IGF-1 (50 μl) was measured with a rIGF-1 ELISA kit (DSL, Webster, Tex.). Human IGF-1 (50 μl) was measured with an in-house kit developed in UCLA using a double monoclonal antibody ELISA with sensitivity of 0.1 ng/ml and an intra-assay and inter-assay coefficient of variations which are <6% and <8%, respectively, in the range from 1 to 6 ng/ml. Human IGFBP-3 (30 μl) was measured with an ELISA kit (DSL, Webster, Tex.). This kit reads both IGFBP-3 and NLS IGFBP-3. […] Serum levels of rat growth hormone were determined using an enzyme immunoassay (EIA) kit (ALPCO, Windham, N.H.) according to the manufacturer's instructions. […]
Under steady-state conditions for plasma glucose concentrations, the rate of glucose disappearance (Rd) equals the rate of glucose appearance (Ra). The latter was calculated as the ratio of the rate of infusion of [3-^3H]glucose (dpm/min) and the steady-state plasma [^3H]glucose specific activity (dpm/mg). […]

[2] = tested on: Sprague-Dawley rats; assay: Intravenous infusion of humanin or analogs during hyperinsulinemic clamp; format: in vivo, rat
Experimental: To study the acute effects of an infusion of IGFBP-3, two groups of awake, unstressed, chronically catheterized Sprague-Dawley rats (˜300 g) were studied for 300 min (n=3 in each group) under hyperinsulinemic clamp (as previously described). From 120 min the rats received a primed continuous infusion of humanin (0.375 mg/kg/hr) or saline (control) for an additional 2 h. Plasma samples for determination of [3H]glucose and [3H] water specific activities were obtained at 10-min intervals during the basal and clamp periods. Steady state conditions for the plasma glucose concentration and specific activity were achieved within 90 min in all the studies. Plasma samples for determination of HN, insulin and FFA concentrations were collected at 30-min intervals throughout the study. All determinations were also performed on portal vein blood obtained at the end of the experiments. The total amount of blood drawn during the entire study for various assays is ˜3 cc. After separation of plasma (subsequently used for analysis), the red blood cells were reconstituted in saline and infused back into the animal.
To determine if peripheral infusion of the humanin analog colivelin affects insulin action, saline or colivelin (one hundredth of the dose of humanin) was infused intravenously during hyperinsulinemic clamp to two groups of rats that were matched for body weight (˜300 gm), visceral fat (˜3.5 grams), basal glucose (˜135 mg % or 7 mM). Colivelin increased hepatic insulin sensitivity by 33% while peripheral glucose uptake was unchanged (FIG. 14).
A primed-continuous ICV infusion of HN, F6A-HN (total dose of 20 μg), STAT-3 inhibitor (75 pmol) (Buettner et al. 2006), or aCSF was initiated at t=0 and maintained for the remainder of the experiment (FIG. 15A). Pancreatic insulin-clamp studies or euglycemic-hyperinsulinemic clamps were performed in conscious, unrestrained, catheterized mice for last 120 minutes as described previously (Bahar et al. 2006, Muzumdar et al. 2006). In the intra-venous group, HN, F6A, Colivelin, and HNGF6A were infused intravenously and hyperinsulinemic clamps were performed as described previously (Loeb et al. 2005). Estimation of glucose, glucose fluxes, insulin, FFA were done as described previously (Loeb et al. 2005). HN measurements were performed by an in-house, ELISA utilizing affinity purified humanin antibodies that recognize both human and rat humanin and has a limit of detection of 0.1 ng/ml (Hwang, and Cohen personal communication).

[3] = 0.06 mg/kg/hr IV, hyperinsulinemic clamp
[4] = IV during hyperinsulinemic clamp, humanin 0.375 mg/kg/hr, colivelin one hundredth of the dose of humanin

levels in rat CSF after peripheral infusion, range ([2]; peripherally infused humanin) [ng/mL] | Compound | human IGFBP-3 levels during the IGFBP-3 infusion ([1]; 0.06 mg/kg/hr IV for 3 h) [ng/mL] | higher HGP compared to controls [1, 3] [%] | reduction in insulin stimulated glucose uptake compared to controls [1, 3] [%] | level in rat CSF after peripheral infusion, mean ([1]; peripherally infused IGFBP-3) [ng/mL] | HGP / hepatic insulin action ([2]; IV during hyperinsulinemic clamp, HN 0.375 mg/kg/hr, Colivelin 0.00375 mg/kg/hr) | increase in hepatic insulin sensitivity [2, 4] [%] | peripheral glucose uptake [2, 4]
 | IGFBP-3: non glycosylated hIGFBP-3 (IGF binding protein-3), provided by Celtrix | 1960 ± 360 | 30 | ~17 | 7 |  |  | 
0 to 40 | CC[C@H](C)[C@H](NC(=O)[C@H](CCC(=O)O)NC(=O)[C@H](CO)NC(=O)[C@@H](NC(=O)[C@H](CC(C)C)NC(=O)[C@H](CC(C)C)NC(=O)[C@H](CC(C)C)NC(=O)[C@H](CC(C)C)NC(=O)[C@H](CS)NC(=O)[C@H](CO)NC(=O)[C@H](Cc1ccccc1)NC(=O)CNC(=O)[C@H](CCCNC(=N)N)NC(=O)[C@@H]1CCCN1C(=O)[C@H](C)NC(=O)[C@@H](N)CCSC)[C@@H](C)O)C(=O)N[C@@H](CC(=O)O)C(=O)N[C@@H](CC(C)C)C(=O)N1CCC[C@H]1C(=O)N[C@H](C(=O)N[C@@H](CCCCN)C(=O)N[C@@H](CCCNC(=N)N)C(=O)N[C@@H](CCCNC(=N)N)C(=O)N[C@@H](C)C(=O)O)C(C)C [Humanin, maprgfscll lltseidlpv krra] |  |  |  |  | trend towards decreased HGP | 80 | unchanged
